Assay results: patent publication US8796456B2, “Naphthalene diimide compounds” (University College London, priority 2007, dated 2014)

Columns and labels:
telomeric G-quadruplex = type: binding, human; conditions: for FRET-Q ΔTm(0.5 μM): telomeric G-quadruplex sequence, 0.5 μM compound, maximum error ± 1° C.
Method: (§1) 50 μL of annealed DNA and 50 μL of compound per well were put into 96-well plates and processed in a DNA Engine Opticon (MJ Research). […] The raw data were imported into Origin 7.0 (OriginLab Corp.) and the graphs smoothed using a 10-point running average and subsequently normalised. For the determination of the melting temperature, the first derivative of the smoothed melting curve was calculated.
(§2) The initial assessment of the DNA stabilisation ability of the compounds was done using FRET. Four different DNA sequences were used—a model for the human telomeric G-quadruplex, a self-complementary duplex DNA hairpin and two sequences that are present in the promoter region of the CKIT gene. A FRET competition experiment was also run in which affinity for the telomeric G-quadruplex sequence was evaluated in presence of increasing concentrations of duplex DNA. These experiments allowed us to assess the selectivity of the ligands between quadruplex and duplex DNA.

HGC-27 cells (gastric) = test: SRB toxicity assay, HGC-27; type: cell-based; conditions: Homo sapiens, HGC-27, 96 h
Method: (§3) Human cancer cell lines, breast (MCF7), lung (A549), colon (HT-29), gastric (HGC-27) and normal human lung fibroblast lines (WI-38) were purchased from American Type Cell Culture (ATCC). The GIST882 line was a gift from Dr Jonathan Fletcher. All cell lines except HGC27 and WI38 were maintained in Dulbecco's Modified Eagles Media containing 10% foetal bovine serum (Invitrogen, UK), […] hydrocortisone (Acros Chemicals, Loughborough, UK), 2 mM L-glutamine (Invitrogen, Netherlands), and non-essential amino-acids (Invitrogen, Netherlands), and incubated at 37° C., 5% CO2. The WI38 and HGC27 lines were maintained in minimum essential medium, prepared as above. All cell lines were routinely passaged at a ratio of 1:6.
(§4) Short-term growth inhibition was measured using the SRB assay as described previously. Briefly, cells were seeded (4000 cells/wells) into the wells of 96 well-plates in appropriate medium and incubated overnight to allow the cells to attach. Subsequently cells were exposed to freshly-made solutions of drugs and incubated for a further 96 h. Following this the cells were fixed with ice cold trichlo-acetic acid (TCA) (10%, w/v) for 30 min and stained with 0.4% SRB dissolved in 1% acetic acid for 15 min. All incubations were carried out at room temperature.

duplex DNA = test: FRET melting assay, duplex DNA; type: binding; conditions: duplex sequence, 0.5 μM compound, maximum error ± 1° C.
Method: as §1, with “calculated. The difference between the melting temperature at 0.5 μM of the compound and the melting temperature for the blank (ΔTm(0.5 μM)) was used for comparison.” for “calculated.”

GIST882 cells = test: SRB toxicity assay, GIST882; type: cell-based; conditions: Homo sapiens, 96 h exposure
Method: as §3, §4

ckit1 G-quadruplex = test: FRET melting assay, ckit1 G-quadruplex; type: binding; conditions: ckit1 G-quadruplex sequence, 0.5 μM compound, maximum error ± 1° C.
Method: as §1, §2

telomerase = test: Modified TRAP assay (telomerase inhibition); type: biochemical
Method: The TRAP assay was carried out in three steps with an initial primer elongation step by telomerase, a subsequent removal of the primer bound ligand and a final PCR amplification of the telomerase products. […] The PCR master mix was added to tubes containing freshly prepared compounds at various concentrations and to the negative control containing no drug. The initial elongation step was carried out for 10 min at 30° C., followed by a 94° C. for 5 min and a final maintenance of the mixture at 20° C. To purify the elongated product and to remove the bound ligands the QIAquick nucleotide purification kit (Qiagen) was used according to manufacturer's instructions. […] This was substituted with PCR-grade water in our experiments. The purified extended samples were then subject to PCR amplification. […] Fluorescence from drug samples were normalised against positive control containing protein only. All samples were corrected for background by subtracting the fluorescence reading of negative controls.

HT-29 cells (colon) = test: SRB toxicity assay, HT-29; type: cell-based; conditions: Homo sapiens, 96 h exposure, HT-29D
Method: as §3, §4

ckit2 G-quadruplex = test: FRET melting assay, ckit2 G-quadruplex; type: binding; conditions: ckit2 G-quadruplex sequence, 0.5 μM compound, maximum error ± 1° C.
Method: as §1, §2

MCF7 cells = test: Senescence β-galactosidase staining in MCF7 cells; type: cell-based, human; conditions: at 70 nM
Method: Senescence detection and quantification experiments were carried out using a commercially available kit (Senescence β-galactosidase staining kit, Cell Signalling Technology, MA, USA). 1×10^5 cells were seeded in a 35 mm well of a 6-well plate (Nunc, Denmark) in 2 ml of medium and compound to test. The cells were incubated for 24 hours. The medium was then removed and the cells were washed with PBS (1×2 ml). The cells were fixed by treating them with 1 ml of fixative solution (2% formaldehyde and 2% glutaraldehyde in PBS) for 15 minutes at RT. The fixative solution was then removed and the wells washed with PBS (2×2 ml). Freshly prepared staining solution (a mixture of 930 μL of 40 mM citric acid/sodium phosphate (pH 6.0), 0.15 M NaCl and 2 mM MgCl2, 10 μL of 500 mM potassium ferrocyanide, 10 μL of 500 mM potassium ferricyanide and 50 μL of 20 mg/ml 5-bromo-4-chloro-3-indolyl-μD-galactopyranoside in DMF) (1 ml) was added and the cells were incubated overnight. The senescent cells, detected by their blue pigmentation, were quantified under a light microscope.
Senescence phenotype was investigated in MCF7 cells treated for 1 week with sub-cytotoxic concentrations of a selection of compounds.

Compound	concentration required to increase the melting temperature by 35° C. (telomeric G-quadruplex; G-quadruplex DNA, FRET) [µM]	IC50 (HGC-27 cells (gastric)) [nM]	FRET-d ΔTm(0.5 μM) (duplex DNA) [°C]	IC50 (GIST882 cells) [nM]	FRET-ckit1 ΔTm(0.5 μM) (ckit1 G-quadruplex) [°C]	EC50 (telomerase) [nM]	IC50 (HT-29 cells (colon)) [nM]	FRET-Q ΔTm(0.5 μM) (telomeric G-quadruplex) [°C]	FRET-ckit2 ΔTm(0.5 μM) (ckit2 G-quadruplex) [°C]	Senescence (% of cells) after 1 week (MCF7) (MCF7 cells)
CN(C)c1ccc(Nc2c3ccc(NC(=O)CCN4CCCC4)cc3nc3cc(NC(=O)CCN4CCCC4)ccc23)cc1 [BRACO19]	2.5									
CN(C)CCCNc1cc2c3c(c(NCCCN(C)C)cc4c3c1C(=O)N(CCCN(C)C)C4=O)C(=O)N(CCCN(C)C)C2=O [Compound 12]		510	4.5	1300	29.75	25000 ± 2500	63	33.2	36.5	35.0 ± 3 (at 70 nM) % of cells
CN(C)CCCNc1cc2c3c(ccc4c3c1C(=O)N(CCCN(C)C)C4=O)C(=O)N(CCCN(C)C)C2=O [Compound 13]			12.5		23.5	17000 ± 1100		26.5	29	
CN(C)CCCN1C(=O)c2ccc3c4c(ccc(c24)C1=O)C(=O)N(CCCN(C)C)C3=O [Compound 32, reference compound]			2.7		2.5			5.2	7.75	
CN(C)CCN1C(=O)c2ccc3c4c(ccc(c24)C1=O)C(=O)N(CCN(C)C)C3=O [Compound 33, N,N′-bis(3-(dimethylamino)ethylamino)-1,4,5,8-naphthalenetetracarboxylic acid diimide, reference compound]			1		1.25			3.2	7.25	
